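Here, GI50 denotes the concentration required for 50% inhibition of growth. TGI denotes the concentration required for complete inhibition of growth.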
Key:
Test in all cases: growth of human tumour cells (NCI), 384-well format
MDA-MB-468 breast = system: MDA-MB-468 breast
BT-549 breast = system: BT-549 breast
SF-295 CNS = system: SF-295 CNS
HL-60(TB) leukemia = system: HL-60(TB) leukemia
786-0 renal = system: 786-0 renal
HS 578T breast = system: HS 578T breast
T-47D breast = system: T-47D breast
SF-539 CNS = system: SF-539 CNS
NCI-H522 lung = system: NCI-H522 lung
SK-MEL-2 melanoma = system: SK-MEL-2 melanoma
EKVX NSCLC = system: EKVX NSCLC
MDA-MB-231 breast = system: MDA-MB-231 breast
DU-145 prostate = system: DU-145 prostate
KM12 colon = system: KM12 colon
NCI/ADR-RES ovarian = system: NCI/ADR-RES ovarian
M14 melanoma = system: M14 melanoma
PC-3 prostate = system: PC-3 prostate
RXF 393 renal = system: RXF 393 renal
HCT-15 colon = system: HCT-15 colon
HOP-92 NSCLC = system: HOP-92 NSCLC
SK-MEL-28 melanoma = system: SK-MEL-28 melanoma
SNB-75 CNS = system: SNB-75 CNS
SN12C renal = system: SN12C renal
SNB-19 CNS = system: SNB-19 CNS
HT29 colon = system: HT29 colon
SK-MEL-5 melanoma = system: SK-MEL-5 melanoma
U251 glioblastoma = system: U251 glioblastoma
HCT-116 colon = system: HCT-116 colon
NCI-H226 lung = system: NCI-H226 lung
UO-31 renal = system: UO-31 renal
UACC-62 melanoma = system: UACC-62 melanoma
NCI-H23 lung = system: NCI-H23 lung
SF-268 CNS = system: SF-268 CNS
CAKI-1 renal = system: CAKI-1 renal
MALME-3M melanoma = system: MALME-3M melanoma
A549 NSCLC = system: A549 NSCLC
LOX IMVI melanoma = system: LOX IMVI melanoma
TK-10 renal = system: TK-10 renal
SR leukemia = system: SR leukemia
OVCAR-8 ovarian = system: OVCAR-8 ovarian
COLO 205 colon = system: COLO 205 colon
SW-620 colon = system: SW-620 colon
MOLT-4 leukemia = system: MOLT-4 leukemia
UACC-257 melanoma = system: UACC-257 melanoma
MDA-MB-435 melanoma = system: MDA-MB-435 melanoma
CCRF-CEM leukemia = system: CCRF-CEM leukemia
K-562 leukemia = system: K-562 leukemia

## CNC(=O)c1ccc(-c2cnc3ncc(Cc4ccc5ncccc5c4)n3n2)cc1F
MDA-MB-468 breast
  GI50: > 100 µM
  TGI: > 100 µM
BT-549 breast
  GI50: > 100 µM
  TGI: > 100 µM
SF-295 CNS
  GI50: > 72.6 µM
  TGI: > 100 µM
HL-60(TB) leukemia
  GI50: > 100 µM
  TGI: > 100 µM
786-0 renal
  GI50: > 87.7 µM
  TGI: > 100 µM
HS 578T breast
  GI50: > 100 µM
  TGI: > 100 µM
T-47D breast
  GI50: > 100 µM
  TGI: > 100 µM
SF-539 CNS
  GI50: > 100 µM
  TGI: > 100 µM
NCI-H522 lung
  GI50: > 100 µM
  TGI: > 100 µM
SK-MEL-2 melanoma
  GI50: > 100 µM
  TGI: > 100 µM
EKVX NSCLC
  GI50: > 100 µM
  TGI: > 100 µM
MDA-MB-231 breast
  GI50: > 100 µM
  TGI: > 100 µM
DU-145 prostate
  GI50: > 100 µM
  TGI: > 100 µM
KM12 colon
  GI50: > 77.3 µM
  TGI: > 100 µM
NCI/ADR-RES ovarian
  GI50: > 100 µM
  TGI: > 100 µM
M14 melanoma
  GI50: > 100 µM
  TGI: > 100 µM
PC-3 prostate
  GI50: > 100 µM
  TGI: > 100 µM
RXF 393 renal
  GI50: > 43.1 µM
  TGI: > 100 µM
HCT-15 colon
  GI50: > 100 µM
  TGI: > 100 µM
HOP-92 NSCLC
  GI50: > 75 µM
  TGI: > 100 µM
SK-MEL-28 melanoma
  GI50: > 100 µM
  TGI: > 100 µM
SNB-75 CNS
  GI50: > 61.6 µM
  TGI: > 94.5 µM
SN12C renal
  GI50: > 77.6 µM
  TGI: > 100 µM
SNB-19 CNS
  GI50: > 100 µM
  TGI: > 100 µM
HT29 colon
  GI50: > 100 µM
  TGI: > 100 µM
SK-MEL-5 melanoma
  GI50: > 100 µM
  TGI: > 100 µM
U251 glioblastoma
  GI50: > 100 µM
  TGI: > 100 µM
HCT-116 colon
  GI50: > 100 µM
  TGI: > 100 µM
NCI-H226 lung
  GI50: > 100 µM
  TGI: > 100 µM
UO-31 renal
  GI50: > 100 µM
  TGI: > 100 µM
UACC-62 melanoma
  GI50: > 100 µM
  TGI: > 100 µM
NCI-H23 lung
  GI50: > 100 µM
  TGI: > 100 µM
SF-268 CNS
  GI50: > 76.9 µM
  TGI: > 100 µM
CAKI-1 renal
  GI50: > 100 µM
  TGI: > 100 µM
MALME-3M melanoma
  GI50: > 100 µM
  TGI: > 100 µM
A549 NSCLC
  GI50: > 100 µM
  TGI: > 100 µM
LOX IMVI melanoma
  GI50: > 100 µM
  TGI: > 100 µM
TK-10 renal
  GI50: > 100 µM
  TGI: > 100 µM
SR leukemia
  GI50: > 50.9 µM
  TGI: > 100 µM
OVCAR-8 ovarian
  GI50: > 100 µM
  TGI: > 100 µM
COLO 205 colon
  GI50: > 100 µM
  TGI: > 100 µM
SW-620 colon
  GI50: > 100 µM
  TGI: > 100 µM
MOLT-4 leukemia
  GI50: > 100 µM
  TGI: > 100 µM
UACC-257 melanoma
  GI50: > 100 µM
  TGI: > 100 µM
MDA-MB-435 melanoma
  GI50: > 100 µM
  TGI: > 100 µM
CCRF-CEM leukemia
  GI50: > 100 µM
  TGI: > 100 µM
K-562 leukemia
  GI50: > 100 µM
  TGI: > 100 µM

— PubChem BioAssay (NCI)
